# Measured values from patent US20240392250A1, “HIGH-THROUGHPUT SELECTION AND FABRICATION OF BIOMATERIAL-ENCAPSULATED CELL MASS AND USES THEREOF” (BioArchitec Group Limited, priority 2022, published 2024).
# Test system: HT-29 spheroids encapsulated BECM
# Assay: Drug response of HT-29 spheroid BECMs by CELLTITER GLO 3D cell viability assay
# Type: cell-based
# Conditions: biomaterial-encapsulated HT-29 cancer cell spheroids; Osimertinib 0, 2, 4 and 8 μM; 72 hrs at 37° C.; n=10; FIG. 7
# Description: Commercially available 3D cell viability assay, CELLTITER GLO (Promega Corp.), was used to determine the cell viability of the BECMs.
structure (smiles),measurement,value
C=CC(=O)Nc1cc(Nc2nccc(-c3cn(C)c4ccccc34)n2)c(OC)cc1N(C)CCN(C)C [Osimertinib],cell viability of the BECMs (dose-response),a typical 3D cell culture viability dose-response was obtained
